Source: publication PMC9930359, “Cytotoxicity of the methanol extracts and compounds of Brucea antidysenterica (Simaroubaceae) towards multifactorial drug-resistant human cancer cell lines” (BMC Complementary Medicine and Therapies, 2023)

Experiments:
[1] = system: CCRF-CEM leukemia cells; experiment: Resazurin reduction assay (RRA), cytotoxicity; assay type: cell-based; details: Homo sapiens, 72 h
Excerpt: (§2) In this work, 9 cancer cell lines with various drug resistance patterns as well as AML12 hepatocytes as normal control cell line were used. […] The AML12 hepatocytes were used for the comparison of the activities of the samples with HepG2 [40]. […] The RPMI-1640 medium was used for the culture of CCRF-CEM and CEM/ADR5000 cells whilst DMEM medium was used for carcinoma cells. The culture media were supplemented (complete medium) with 10% fetal bovine serum and 1% penicillin/streptomycin (Invitrogen, Eggenstein, Germany). […] To maintain the resistance phenotype of the resistant carcinoma cell lines such as MDA-MB-231/BCRP and HCT116 p53^−/−, and U87MG.ΔEGFR cells, the complete DMEM medium containing geneticin at 800 ng/ml and 400 µg/ml, respectively were used [41, 42].
(§3) Cells were cultured in a standard condition consisted of a humidified 5% CO2 atmosphere and an incubation temperature of 37 °C. The tested concentration ranges were 0.63—80 µg/mL for the botanicals and 0.78—100 µM for phytochemicals. The incubation time of the treated cells was 72 h, and the fluorescence was measured with Infinite M2000 Pro™ plate reader (Tecan, Crailsheim, Germany). The wavelengths used were 544 nm for the excitation and 590 nm for the emission. […] The degree of resistance (D.R.) was set as the ratio of the IC50 values of samples in the resistant cell line vs that of corresponding sensitive cell line. The selectivity index (S.I.) was the ratio of the IC50 value of AML12 hepatocytes vs. that of HepG2 cells [13, 48].

[2] = system: CEM/ADR5000 cells; experiment: Resazurin reduction assay (RRA), cytotoxicity; assay type: cell-based, human; details: for IC50: Homo sapiens, CEM/ADR5000, 72 h; for Degree of resistance (D.R.): ratio of IC50 CEM/ADR5000 vs CCRF-CEM
Experimental: (§4) The RPMI-1640 medium was used for the culture of CCRF-CEM and CEM/ADR5000 cells whilst DMEM medium was used for carcinoma cells. The culture media were supplemented (complete medium) with 10% fetal bovine serum and 1% penicillin/streptomycin (Invitrogen, Eggenstein, Germany). […] To maintain the resistance phenotype of the resistant carcinoma cell lines such as MDA-MB-231/BCRP and HCT116 p53^−/−, and U87MG.ΔEGFR cells, the complete DMEM medium containing geneticin at 800 ng/ml and 400 µg/ml, respectively were used [41, 42].
as §3

[3] = system: MDA-MB-231-pcDNA cells; experiment: Resazurin reduction assay (RRA), cytotoxicity; assay type: cell-based; details: Homo sapiens, 72 h
Excerpt: as §2, §3

[4] = system: HCT116 p53+/+ cells; experiment: Resazurin reduction assay (RRA), cytotoxicity; assay type: cell-based; details: Homo sapiens, HCT-116, 72 h
Excerpt: as §2, §3

[5] = system: HCT116 p53−/− cells; experiment: Resazurin reduction assay (RRA), cytotoxicity; assay type: cell-based, human; details: for IC50: Homo sapiens, HCT-116, HCT116 p53−/−, 72 h
Experimental: as §4, §3

[6] = system: U87MG cells; experiment: Resazurin reduction assay (RRA), cytotoxicity; assay type: cell-based; details: Homo sapiens, U-87 MG, 72 h
Excerpt: as §2, §3

[7] = system: U87MG.ΔEGFR cells; experiment: Resazurin reduction assay (RRA), cytotoxicity; assay type: cell-based, human; details: for IC50: Homo sapiens, U87MG.ΔEGFR, 72 h
Experimental: as §4, §3

[8] = system: HepG2 cells; experiment: Resazurin reduction assay (RRA), cytotoxicity; assay type: cell-based; details: Homo sapiens, HepG2, 72 h
Excerpt: as §2, §3

[9] = system: AML12 hepatocytes; experiment: Resazurin reduction assay (RRA), cytotoxicity on normal hepatocytes; assay type: cell-based; details: Mus musculus, AML12 normal hepatocytes, 72 h
Experimental: as §4, §3

[10] = system: MDA-MB-231-BCRP cells; experiment: Resazurin reduction assay (RRA), cytotoxicity; details: for IC50: Homo sapiens, MDA-MB-231/BCRP, 72 h
Experimental: as §4, §3

[11] = system: CCRF-CEM cells; experiment: Reactive oxygen species (ROS), H2DCFH-DA staining, flow cytometry; assay type: cell-based, human; details: 50 µM, 24 h
Experimental: (§1) The modification of the MMP as well as the ROS levels after the application of BAL, and flavonolignan 2 at ¼ IC50, ½ IC50, IC50, and 2 × IC50 to CCRF-CEM cells (1 × 10^6) was performed by flow cytometry. DMSO was used as solvent control while valinomycin served as a positive control. The cells were incubated for 24 h and further stained for 30 min with JC-1 [45] and measured (1 × 10^4 cells) in an LSR-Fortessa FACS analyzer (Becton–Dickinson). For ROS determination, CCEF-CEM cells were similarly treated BAL, the flavonolignan 2, hydrogen peroxide (H2O2; positive control), DMSO (solvent control) as in the MMP analysis, then incubated for 24 h. They were further stained with H2DCFH-DA and measured (1 × 10^4 cells) in an LSR-Fortessa FACS analyzer.

[12] = system: CCRF-CEM cells; experiment: Mitochondrial membrane potential (MMP), JC-1 staining, flow cytometry; assay type: cell-based, human; details: 10 µM, 24 h
Experimental: as §1

[13] = system: PC-3; set-up: method as in PMID 31816856; details: on PC-3 ref 30; cited from earlier work

Compound: CC(C)(O)[C@@H](O)Cc1cn([C@@H]2O[C@H](CO)[C@@H](O)[C@H](O)[C@H]2O)c2ccccc12 [Compound 7, 3-(2’,3’-dihydroxy-3’-méthylbutyl)-1N-β-glucopyranosylindole]
- IC50 [1]: 20.4 ± 0.94 µM
- IC50 [2]: > 100 µM
- Degree of resistance (D.R.) [2]: > 4.91
- IC50 [3]: > 100 µM
- IC50 [4]: > 100 µM
- IC50 [5]: > 100 µM
- IC50 [6]: > 100 µM
- IC50 [7]: > 100 µM
- IC50 [8]: > 100 µM
- IC50 [9]: > 100 µM
- melting point: 209 to 211 °C
- IC50 [10]: > 100 µM

Compound: OO [Compound H2O2, hydrogen peroxide, reference compound]
- ROS levels in treated cells [11]: 94.30%

Compound: COc1cccc2c1C(=O)c1c(O)c3c(c(O)c1C2=O)C[C@@](O)(C(=O)CO)C[C@@H]3O[C@H]1C[C@H](N)[C@H](O)[C@H](C)O1 [Doxorubicin, reference compound]
- IC50 [1]: 0.02 µM
- IC50 ([1]; Table 2): 0.02 µg/mL
- IC50 ([2]; Table 2): 123 ± 10.9 µg/mL
- Degree of resistance (D.R.) [2]: 6,683.00
- IC50 ([3]; Table 2): 0.13 ± 0.01 µg/mL
- IC50 ([5]; Table 2): 1.78 ± 0.08 µg/mL
- Degree of resistance (D.R.) ([5]; ratio of IC50 HCT116 p53−/− vs HCT116 p53+/+): 3.73
- IC50 ([6]; Table 2): 0.26 ± 0.03 µg/mL
- IC50 ([7]; Table 2): 0.98 ± 0.07 µg/mL
- Degree of resistance (D.R.) ([7]; ratio of IC50 U87.MGΔEGFR vs U87.MG): 3.79
- IC50 ([8]; Table 2): 4.56 ± 0.48 µg/mL
- IC50 ([9]; Table 2): > 50 µg/mL
- IC50 [10]: 0.79 ± 0.08 µg/mL
- Degree of resistance (D.R.) ([10]; ratio of IC50 MDA-MB-231-BCRP vs MDA-MB-231-pcDNA): 6.14

Compound: CC(C)[C@@H]1NC(=O)[C@H](C)OC(=O)[C@@H](C(C)C)NC(=O)[C@@H](C(C)C)OC(=O)[C@H](C(C)C)NC(=O)[C@H](C)OC(=O)[C@@H](C(C)C)NC(=O)[C@@H](C(C)C)OC(=O)[C@H](C(C)C)NC(=O)[C@H](C)OC(=O)[C@@H](C(C)C)NC(=O)[C@@H](C(C)C)OC1=O [valinomycin, reference compound]
- cells with MMP disrupted [12]: 16.8%
- cells with MMP loosed [12]: 44.5%
- healthy cells (intact MMP) [12]: 38.8%

Compound: bruceacanthinones A
- IC50 [13]: 196 µM
